From patent US10670605B2, “Cysteine reactive probes and uses thereof” (The Scripps Research Institute, priority 2015, dated 2020)
Each block holds one molecule with its values, some of them ahead of it.

Assays:
Assay in all cases: Competitive isoTOP-ABPP, cell lysates;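 for isoTOP-ABPP reactivity profile ratio, O00170 C122: Heavy/light ratio DMSO over fragment-treated so higher means more cysteine engagement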;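 for isoTOP-ABPP reactivity profile ratio, P68036 C86: Heavy/light ratio DMSO over fragment-treated so higher means more cysteine engagement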
Type in all cases: binding
[1] = target: DCUN1D1 C115 (Q96GG9) (Homo sapiens, UniProt Q96GG9); conditions: 500 μm
[2] = target: T1, PDIA6 C55 (Q15084) (Homo sapiens, UniProt Q15084); conditions: 500 μm
T1 sequence (Q15084 20-440): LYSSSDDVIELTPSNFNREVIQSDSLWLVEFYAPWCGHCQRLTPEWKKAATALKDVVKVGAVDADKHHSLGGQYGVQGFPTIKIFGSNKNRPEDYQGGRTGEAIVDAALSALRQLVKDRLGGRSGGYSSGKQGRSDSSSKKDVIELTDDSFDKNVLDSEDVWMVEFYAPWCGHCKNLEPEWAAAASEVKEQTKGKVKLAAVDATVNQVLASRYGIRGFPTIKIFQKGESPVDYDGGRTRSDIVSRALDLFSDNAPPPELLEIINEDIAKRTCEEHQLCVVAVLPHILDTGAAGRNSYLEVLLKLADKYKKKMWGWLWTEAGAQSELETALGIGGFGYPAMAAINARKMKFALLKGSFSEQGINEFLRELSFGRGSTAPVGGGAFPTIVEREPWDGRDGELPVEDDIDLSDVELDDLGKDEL

[3] = target: SMARCC2 C145 (Q8TAQ2) (Homo sapiens, UniProt Q8TAQ2); conditions: 500 μm
[4] = target: STAT3 C259 (P40763) (Homo sapiens, UniProt P40763); conditions: 500 μm; for isoTOP-ABPP reactivity ratio, P40763_C259: in-vitro_ramos
[5] = target: T2, ACAT1 C196 (P24752) (Homo sapiens, UniProt P24752); conditions: 500 μm
T2 sequence (P24752 34-427): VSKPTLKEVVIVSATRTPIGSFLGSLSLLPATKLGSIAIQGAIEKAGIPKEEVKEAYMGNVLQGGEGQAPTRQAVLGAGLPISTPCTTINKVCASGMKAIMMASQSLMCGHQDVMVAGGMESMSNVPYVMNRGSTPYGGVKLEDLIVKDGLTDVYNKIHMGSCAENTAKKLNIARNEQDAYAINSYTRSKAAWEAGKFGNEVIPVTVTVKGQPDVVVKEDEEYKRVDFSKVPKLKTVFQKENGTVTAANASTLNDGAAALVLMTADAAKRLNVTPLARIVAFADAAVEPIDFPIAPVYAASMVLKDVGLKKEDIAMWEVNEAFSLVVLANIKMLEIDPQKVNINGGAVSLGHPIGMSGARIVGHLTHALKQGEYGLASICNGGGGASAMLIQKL

[6] = target: T3, ACAT1 C413 (P24752) (Homo sapiens, UniProt P24752); conditions: 500 μm
T3 sequence (P24752 34-427): T2 sequence (P24752 34-427)

[7] = target: T4, ACAT1 C126 (P24752) (Homo sapiens, UniProt P24752); conditions: 500 μm
T4 sequence (P24752 34-427): T2 sequence (P24752 34-427)

[8] = target: T5, AIP C122 (O00170) (Homo sapiens, UniProt O00170); conditions: 500 μm;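 for isoTOP-ABPP reactivity profile ratio, O00170 C122: Heavy/light ratio DMSO over fragment-treated so higher means more cysteine engagement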
T5 sequence (O00170 1-330): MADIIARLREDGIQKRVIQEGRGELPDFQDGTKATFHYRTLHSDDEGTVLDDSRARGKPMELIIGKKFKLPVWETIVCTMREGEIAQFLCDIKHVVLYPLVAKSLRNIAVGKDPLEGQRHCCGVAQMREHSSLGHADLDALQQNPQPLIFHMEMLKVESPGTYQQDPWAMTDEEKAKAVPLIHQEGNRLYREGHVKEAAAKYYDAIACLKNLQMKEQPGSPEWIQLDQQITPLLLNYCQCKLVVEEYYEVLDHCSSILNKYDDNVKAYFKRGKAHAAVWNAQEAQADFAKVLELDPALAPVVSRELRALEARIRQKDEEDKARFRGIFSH

[9] = target: UBE2L3 C86 (P68036) (Homo sapiens, UniProt P68036); conditions: 500 μm;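 for isoTOP-ABPP reactivity profile ratio, P68036 C86: Heavy/light ratio DMSO over fragment-treated so higher means more cysteine engagement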
[10] = target: SAMHD1 C522 (Q9Y3Z3) (Homo sapiens, UniProt Q9Y3Z3); conditions: 500 μm, in-vitro_ramos_231

- isoTOP-ABPP reactivity ratio, Q96GG9_C115 ([1]; in-vitro_ramos): 0.9
- isoTOP-ABPP reactivity ratio, Q15084_C55 ([2]; in-vitro_ramos_231): 0.9
- isoTOP-ABPP reactivity ratio, Q8TAQ2_C145 ([3]; in-vitro_ramos_231): 0.9
- isoTOP-ABPP reactivity ratio, P40763_C259 [4]: 1.1
- isoTOP-ABPP reactivity ratio, P24752_C196 ([5]; in-vitro_ramos): 1.4
- isoTOP-ABPP reactivity ratio, P24752_C196 ([5]; in-vitro_ramos_231): 0.9
- isoTOP-ABPP reactivity ratio, P24752_C413 ([6]; in-vitro_ramos): 1.3
- isoTOP-ABPP reactivity ratio, P24752_C126 ([7]; in-vitro_ramos): 10.4
Structure (SMILES): O=C(CCl)Nc1ccccc1C1CCCCCC1 [compound 35]

- isoTOP-ABPP reactivity profile ratio, O00170_C122 ([8]; in-vitro_ramos): 2.1
- isoTOP-ABPP reactivity profile ratio, Q15084_C55 ([2]; in-vitro_ramos): 20.0
- isoTOP-ABPP reactivity profile ratio, Q15084_C55 ([2]; in-vitro_ramos_231): 20.0
- isoTOP-ABPP reactivity profile ratio, Q9Y3Z3_C522 [10]: 2.2
- isoTOP-ABPP reactivity profile ratio, Q8TAQ2_C145 ([3]; in-vitro_ramos_231): 20.0
- isoTOP-ABPP reactivity profile ratio, P68036_C86 ([9]; in-vitro_ramos): 1.7
- isoTOP-ABPP reactivity profile ratio, P68036_C86 ([9]; in-vitro_ramos_231): 1.1
- isoTOP-ABPP reactivity profile ratio, P24752_C196 ([5]; in-vitro_ramos): 2.3
- isoTOP-ABPP reactivity profile ratio, P24752_C196 ([5]; in-vitro_ramos_231): 2.4
- isoTOP-ABPP reactivity profile ratio, P24752_C413 ([6]; in-vitro_ramos_231): 15.9
- isoTOP-ABPP reactivity profile ratio, P24752_C126 ([7]; in-vitro_ramos): 20.0
Structure (SMILES): COc1cc(NC(=O)CCl)cc(OC)c1 [compound 43]

- isoTOP-ABPP reactivity profile ratio, O00170_C122 ([8]; in-vitro_ramos_231): 1.4
- isoTOP-ABPP reactivity profile ratio, Q96GG9_C115 ([1]; in-vitro_ramos): 0.8
- isoTOP-ABPP reactivity profile ratio, Q15084_C55 ([2]; in-vitro_ramos): 2.7
- isoTOP-ABPP reactivity profile ratio, Q15084_C55 ([2]; in-vitro_ramos_231): 2.5
- isoTOP-ABPP reactivity profile ratio, Q8TAQ2_C145 ([3]; in-vitro_ramos): 1.1
- isoTOP-ABPP reactivity profile ratio, P68036_C86 ([9]; in-vitro_ramos): 1.0
- isoTOP-ABPP reactivity profile ratio, P24752_C196 ([5]; in-vitro_ramos_231): 1.1
- isoTOP-ABPP reactivity profile ratio, P24752_C413 ([6]; in-vitro_ramos): 1.0
- isoTOP-ABPP reactivity profile ratio, P24752_C413 ([6]; in-vitro_ramos_231): 1.0
- isoTOP-ABPP reactivity profile ratio, P24752_C126 ([7]; in-vitro_ramos): 1.2
- isoTOP-ABPP reactivity profile ratio, P24752_C126 ([7]; in-vitro_ramos_231): 1.0
Structure (SMILES): O=C(CCl)Nc1cccc2ncccc12 [compound 51]

Further lines, the molecule ahead of its results:

Structure (SMILES): C=CC(=O)Nc1cc(F)c(N2CCN(C(=O)OC(C)(C)C)CC2)c(F)c1 [compound 38]
- isoTOP-ABPP reactivity ratio, O00170_C122 ([8]; in-vitro_ramos): 1.5
- isoTOP-ABPP reactivity ratio, O00170_C122 ([8]; in-vitro_ramos_231): 1.5
- isoTOP-ABPP reactivity ratio, Q96GG9_C115 ([1]; in-vitro_ramos): 1.0
- isoTOP-ABPP reactivity ratio, Q96GG9_C115 ([1]; in-vitro_ramos_231): 1.2
- isoTOP-ABPP reactivity ratio, Q15084_C55 ([2]; in-vitro_ramos): 1.3
- isoTOP-ABPP reactivity ratio, Q15084_C55 ([2]; in-vitro_ramos_231): 1.0
- isoTOP-ABPP reactivity ratio, Q8TAQ2_C145 ([3]; in-vitro_ramos): 1.9
- isoTOP-ABPP reactivity ratio, Q8TAQ2_C145 ([3]; in-vitro_ramos_231): 1.1
- isoTOP-ABPP reactivity ratio, P40763_C259 [4]: 1.5
- isoTOP-ABPP reactivity ratio, P68036_C86 ([9]; in-vitro_ramos): 1.5
- isoTOP-ABPP reactivity ratio, P24752_C196 ([5]; in-vitro_ramos): 1.3
- isoTOP-ABPP reactivity ratio, P24752_C196 ([5]; in-vitro_ramos_231): 1.0
- isoTOP-ABPP reactivity ratio, P24752_C413 ([6]; in-vitro_ramos): 20.0
- isoTOP-ABPP reactivity ratio, P24752_C413 ([6]; in-vitro_ramos_231): 1.1
- isoTOP-ABPP reactivity ratio, P24752_C126 ([7]; in-vitro_ramos): 1.4
- isoTOP-ABPP reactivity ratio, P24752_C126 ([7]; in-vitro_ramos_231): 1.0

Structure (SMILES): N#CC(=Cc1ccc(-c2ccccc2Cl)o1)C(N)=O [compound 42]
- isoTOP-ABPP reactivity profile ratio, O00170_C122 ([8]; in-vitro_ramos): 0.8
- isoTOP-ABPP reactivity profile ratio, Q96GG9_C115 ([1]; in-vitro_ramos): 0.9
- isoTOP-ABPP reactivity profile ratio, Q15084_C55 ([2]; in-vitro_ramos): 0.9
- isoTOP-ABPP reactivity profile ratio, Q8TAQ2_C145 ([3]; in-vitro_ramos): 1.0
- isoTOP-ABPP reactivity profile ratio, P68036_C86 ([9]; in-vitro_ramos): 0.8
- isoTOP-ABPP reactivity profile ratio, P24752_C196 ([5]; in-vitro_ramos): 0.8
- isoTOP-ABPP reactivity profile ratio, P24752_C413 ([6]; in-vitro_ramos): 0.7
- isoTOP-ABPP reactivity profile ratio, P24752_C126 ([7]; in-vitro_ramos): 0.8

Structure (SMILES): CC1CCc2ccccc2N1C(=O)CCl (stereo not shown) [compound 45]
- isoTOP-ABPP reactivity profile ratio, P24752_C196 ([5]; in-vitro_ramos_231): 20.0
- isoTOP-ABPP reactivity profile ratio, P24752_C413 ([6]; in-vitro_ramos_231): 20.0
- isoTOP-ABPP reactivity profile ratio, P24752_C126 ([7]; in-vitro_ramos_231): 20.0

Structure (SMILES): C=CC(=O)N(c1ccccc1)C1CCCCC1 [compound 46]
- isoTOP-ABPP reactivity profile ratio, Q15084_C55 ([2]; in-vitro_ramos_231): 0.8
- isoTOP-ABPP reactivity profile ratio, Q8TAQ2_C145 ([3]; in-vitro_ramos_231): 1.0
- isoTOP-ABPP reactivity profile ratio, P40763_C259 ([4]; in-vitro_ramos_231): 1.2
- isoTOP-ABPP reactivity profile ratio, P68036_C86 ([9]; in-vitro_ramos_231): 1.2
- isoTOP-ABPP reactivity profile ratio, P24752_C196 ([5]; in-vitro_ramos_231): 0.9
- isoTOP-ABPP reactivity profile ratio, P24752_C413 ([6]; in-vitro_ramos_231): 1.1
- isoTOP-ABPP reactivity profile ratio, P24752_C126 ([7]; in-vitro_ramos_231): 0.9

Structure (SMILES): O=C(CCl)N1CCc2cc(Br)ccc21 [compound 50]
- isoTOP-ABPP reactivity profile ratio, O00170_C122 ([8]; in-vitro_ramos_231): 2.3
- isoTOP-ABPP reactivity profile ratio, Q15084_C55 ([2]; in-vitro_ramos_231): 1.3
- isoTOP-ABPP reactivity profile ratio, Q8TAQ2_C145 ([3]; in-vitro_ramos_231): 2.8
- isoTOP-ABPP reactivity profile ratio, P24752_C196 ([5]; in-vitro_ramos_231): 3.9
- isoTOP-ABPP reactivity profile ratio, P24752_C413 ([6]; in-vitro_ramos_231): 9.2
- isoTOP-ABPP reactivity profile ratio, P24752_C126 ([7]; in-vitro_ramos_231): 20.0
